Experimental data: US20020028929A1, “Estradiol derivative and immunoassay using the same” (priority 2000, published 2002)

Test system: antiserum RY469 (Rabbit antiserum prepared in Example 1-(2))
Test: ELISA system for estrone with biotinylated estradiol derivative 1 as labeled compound (standard curve, cross-reactivity test)
Type: binding
Settings: relative to estrone (calculated as 100%), labeled compound biotinylated estradiol derivative 1
Experimental: (2) An ELISA system for estrone using the derivative of the invention as a labeled compound was designed in the following manner.
Biotinylated estradiol derivative 1 of the invention
RY469 (Rabbit antiserum prepared in Example 1-(2)
(a) 100 μL of a standard solution or a sample is pipetted into each well of the 96-well plate, followed by addition of 50 μL of the labeled compound (0.25 ng/mL) comprising the biotinylated estradiol derivative of the invention and 50 μL of the antiserum (×32000);
(b) the reaction is allowed to proceed using a microplate shaker at room temperature for 5 hours;
(§1) (c) all the wells are washed with the wash solution 4 times;
(d) 100 μL of the HRP-labeled reagent (×5000) is added;
(e) the reaction is allowed to proceed using a microplate shaker at room temperature for 1 hour;
(f) all the wells are washed with the wash solution 4 times;
(g) 100 μL of the substrate is added;
(h) the reaction is allowed to proceed at 20° C. for 20 minutes;
(i) 100 μL of the enzyme reaction stop solution is pipetted into each well;
(j) absorbance at 450 nm is measured with a microplate autoreader.
The specifity of the estrone ELISA system was assessed in the following manner.
ELISA was repeated in a similar manner as in Example 3-(2) except that the estrogens shown in Table 2 were used in place of the standard estrone (Sigma Co.). The standard curve of each of the estrogens was obtained (see FIG. 6).
For `C[C@]12CC[C@@H]3c4ccc(O)cc4CC[C@H]3[C@@H]1CC[C@@H]2O` [17β-Estradiol], the “Cross-reactivity (%)” value was 33.33%.
For `CC(C)(c1ccc(O)cc1)c1ccc(O)cc1` [Bisphenol A], the “Cross-reactivity (%)” value was under 0.001%.
For `O=C(O[C@@H]1Cc2c(O)cc(O)cc2O[C@@H]1c1ccc(O)c(O)c1)c1cc(O)c(O)c(O)c1` [Epicatechin gallate], the “Cross-reactivity (%)” value was under 0.001%.
In the case of `C[C@]12CC[C@@H]3c4ccc(O)cc4CC[C@H]3[C@@H]1C[C@@H](O)[C@@H]2O` [Estriol], the “Cross-reactivity (%)” value is reported as 0.15%.
For Catechin, the “Cross-reactivity (%)” value was under 0.001%.
For Nonylphenol, the “Cross-reactivity (%)” value was under 0.001%.

Test system: not given
Test: not given
Settings: general statement on prior art; cited from earlier work
For `O=C(O)CCCC[C@@H]1SC[C@@H]2NC(=O)N[C@@H]21` [biotin], the solubility in water is given as “minimally soluble in water”.

Test system: antiserum RY725 (Rabbit antiserum obtained in Example 1-(1))
Test: ELISA system for 17β-estradiol with biotinylated estradiol derivative 2 as labeled compound (standard curve, cross-reactivity test)
Type: binding
Settings: relative to 17β-estradiol (calculated as 100%), labeled compound biotinylated estradiol derivative 2
Experimental: (1) An ELISA system for 17β-estradiol using the derivative of the invention as a labeled compound was prepared in the following manner.
(a) 100 μL of a standard solution or a sample is pipetted into each well of the 96-well plate, followed by addition of 50 μL of the labeled compound (0.2 ng/mL) comprising the biotinylated estradiol derivative of the invention and 50 μL of the antiserum (×32000);
(b) the reaction is allowed to proceed at 4° C. overnight (for 18-20 hours);
as §1
(d) the reaction is allowed to proceed using a microplate shaker at room temperature for 2 hours;
(e) all the wells are washed with the wash solution 4 times;
(f) […] of the substrate is added;
(g) the reaction is allowed to proceed at room temperature for 20 minutes;
(h) 100 μL of the enzyme reaction stop solution is pipetted into each well;
(i) absorbance at 450 nm is measured with a microplate autoreader.
The specifity of the 17β-estradiol ELISA system was assessed in the following manner.
With `COc1cc2c(cc1O)CC[C@@H]1[C@@H]2CC[C@]2(C)[C@@H](O)CC[C@@H]12` [2-Methoxyestradiol] the “Cross-reactivity (%)” value was 1.79%.
For `C[C@]12CC[C@@H]3c4ccc(O)cc4CC[C@H]3[C@@H]1CC[C@@H]2O` [17β-Estradiol], the “Cross-reactivity (%)” value was 100.00%.
In the case of `C[C@]12CCC(=O)C=C1CC[C@@H]1[C@@H]2CC[C@]2(C)C(=O)CC[C@@H]12` [(+)-4-Androsteron-3,17-dione], the “Cross-reactivity (%)” value is reported as 0.02%.
In the case of `C[C@]12CC[C@@H]3c4ccc(O)cc4CC[C@H]3[C@@H]1C[C@@H](O)[C@@H]2O` [Estriol], the “Cross-reactivity (%)” value is reported as 0.16%.
For `C#C[C@]1(O)CC[C@H]2[C@@H]3CCc4cc(O)ccc4[C@H]3CC[C@@]21C` [Ethynylestradiol], the “Cross-reactivity (%)” value was 0.03%.
In the case of `CC[C@H](c1ccc(O)cc1)[C@@H](CC)c1ccc(O)cc1` [Hexestrol], the “Cross-reactivity (%)” value is reported as 0.00%.
With `C#C[C@]1(O)CC[C@H]2[C@@H]3CCc4cc(OC)ccc4[C@H]3CC[C@@]21C` [Mestranol] the “Cross-reactivity (%)” value was 0.14%.
For `CC(=O)[C@H]1CC[C@H]2[C@@H]3CCC4=CC(=O)CC[C@]4(C)[C@H]3CC[C@]12C` [Progesteron], the “Cross-reactivity (%)” value was 0.01%.
In the case of `C[C@]12CC[C@H]3[C@@H](CCC4=CC(=O)CC[C@@]43C)[C@@H]1CC[C@@H]2O` [Testosterone], the “Cross-reactivity (%)” value is reported as 0.28%.
With `C[C@]12CCC(=O)C=C1CC[C@@H]1[C@@H]2[C@@H](O)C[C@]2(C=O)[C@@H](C(=O)CO)CC[C@@H]12` [d-ALDOSTERONE] the “Cross-reactivity (%)” value was 0.00%.
With `C[C@]12CCC3c4ccc(OS(=O)(=O)O)cc4CCC3C1CC[C@@H]2OS(=O)(=O)O` (stereo partly drawn) [β-Estradiol 3,7-disulfate] the “Cross-reactivity (%)” value was 0.00%.
With `C[C@]12CC[C@@H]3c4ccc(O[C@@H]5O[C@H](C(=O)O)[C@@H](O)[C@H](O)[C@H]5O)cc4CC[C@H]3[C@@H]1CC[C@@H]2O` [β-Estradiol 3-(β-D-glucronide)] the “Cross-reactivity (%)” value was 37.44%.
For `CC12CCC3c4ccc(OC5OC(C(=O)O)C(O)C(O)C5O)cc4CCC3C1CCC2OS(=O)(=O)O` (stereo not drawn) [β-Estradiol 3-glucronide 17-sulfate], the “Cross-reactivity (%)” value was 0.02%.
In the case of `C[C@]12CC[C@@H]3c4ccc(OS(=O)(=O)O)cc4CC[C@H]3[C@@H]1CC[C@@H]2O[C@@H]1O[C@H](C(=O)O)[C@@H](O)[C@H](O)[C@H]1O` [β-Estradiol 3-sulfate 17-glucronide], the “Cross-reactivity (%)” value is reported as 0.00%.
With `C[C@]12CC[C@@H]3c4ccc(O)cc4CC[C@H]3[C@@H]1CC[C@@H]2O[C@@H]1O[C@H](C(=O)O)[C@@H](O)[C@H](O)[C@H]1O` [β-Estradiol 17-(β-D-glucronide)] the “Cross-reactivity (%)” value was 0.00%.
With β-Estradiol 3-sulfate the “Cross-reactivity (%)” value was 11.05%.
